What is called IC50 is the midpoint of a concentration-inhibition curve.

Drawing on US11919887B2, “Substituted tetrahydrofurans as modulators of sodium channels” (Vertex Pharmaceuticals Incorporated, priority 2019, dated 2024), this text covers IC50 for 19 compounds.

A value given as a limit tells only on which side of the number the result lay.

Sequence of human Nav 1.8 (Q9Y5Y9 whole entry, looked up, the tested form may be a part): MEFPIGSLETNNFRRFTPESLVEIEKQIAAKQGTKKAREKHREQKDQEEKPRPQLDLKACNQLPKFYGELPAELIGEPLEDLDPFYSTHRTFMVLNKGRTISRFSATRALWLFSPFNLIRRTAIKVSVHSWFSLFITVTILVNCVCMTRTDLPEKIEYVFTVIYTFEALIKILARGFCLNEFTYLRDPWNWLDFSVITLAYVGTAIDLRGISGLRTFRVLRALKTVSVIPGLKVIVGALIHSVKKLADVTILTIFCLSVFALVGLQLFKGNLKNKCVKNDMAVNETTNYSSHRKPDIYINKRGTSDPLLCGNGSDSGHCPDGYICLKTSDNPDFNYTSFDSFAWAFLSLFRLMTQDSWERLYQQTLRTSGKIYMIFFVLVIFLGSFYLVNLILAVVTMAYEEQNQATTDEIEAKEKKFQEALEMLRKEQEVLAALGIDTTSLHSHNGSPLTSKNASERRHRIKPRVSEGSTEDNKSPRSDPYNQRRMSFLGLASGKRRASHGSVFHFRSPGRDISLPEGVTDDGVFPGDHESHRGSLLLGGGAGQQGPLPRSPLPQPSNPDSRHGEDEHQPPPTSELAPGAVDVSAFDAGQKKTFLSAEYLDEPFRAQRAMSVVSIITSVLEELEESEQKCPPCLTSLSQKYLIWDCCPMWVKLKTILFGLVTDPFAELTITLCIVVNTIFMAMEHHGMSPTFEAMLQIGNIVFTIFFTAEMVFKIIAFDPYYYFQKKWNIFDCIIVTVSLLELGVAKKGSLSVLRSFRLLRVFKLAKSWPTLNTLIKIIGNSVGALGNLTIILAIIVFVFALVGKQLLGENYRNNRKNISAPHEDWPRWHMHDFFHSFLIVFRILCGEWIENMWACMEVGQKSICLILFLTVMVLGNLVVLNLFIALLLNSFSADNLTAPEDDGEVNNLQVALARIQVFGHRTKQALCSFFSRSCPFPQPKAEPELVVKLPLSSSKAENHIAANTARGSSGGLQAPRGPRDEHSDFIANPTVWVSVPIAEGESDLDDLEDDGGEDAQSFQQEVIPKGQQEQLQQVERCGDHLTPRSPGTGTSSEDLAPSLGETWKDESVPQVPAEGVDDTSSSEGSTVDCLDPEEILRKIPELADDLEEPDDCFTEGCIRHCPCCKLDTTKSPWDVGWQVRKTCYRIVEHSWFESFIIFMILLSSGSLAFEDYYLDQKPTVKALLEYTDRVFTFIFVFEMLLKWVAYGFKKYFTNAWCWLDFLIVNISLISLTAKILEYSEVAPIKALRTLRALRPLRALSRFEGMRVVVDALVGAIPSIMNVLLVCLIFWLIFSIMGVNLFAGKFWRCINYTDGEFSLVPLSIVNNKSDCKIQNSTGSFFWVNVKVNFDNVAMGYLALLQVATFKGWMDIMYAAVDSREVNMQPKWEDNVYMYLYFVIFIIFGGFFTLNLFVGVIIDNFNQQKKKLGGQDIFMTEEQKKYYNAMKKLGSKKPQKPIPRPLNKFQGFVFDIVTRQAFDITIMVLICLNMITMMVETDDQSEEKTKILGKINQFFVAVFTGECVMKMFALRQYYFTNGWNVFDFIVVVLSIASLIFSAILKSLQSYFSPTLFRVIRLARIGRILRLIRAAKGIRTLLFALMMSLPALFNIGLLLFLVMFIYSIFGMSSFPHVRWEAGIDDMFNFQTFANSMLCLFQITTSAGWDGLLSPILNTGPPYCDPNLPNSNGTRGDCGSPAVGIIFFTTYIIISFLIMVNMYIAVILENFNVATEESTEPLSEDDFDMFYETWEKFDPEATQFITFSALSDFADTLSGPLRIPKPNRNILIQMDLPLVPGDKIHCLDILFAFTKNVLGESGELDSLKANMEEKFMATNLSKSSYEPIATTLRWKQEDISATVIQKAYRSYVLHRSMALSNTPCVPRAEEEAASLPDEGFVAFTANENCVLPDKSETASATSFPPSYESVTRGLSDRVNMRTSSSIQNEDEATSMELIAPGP

The target of one experiment is human Nav 1.8 (Homo sapiens, UniProt Q9Y5Y9). Nature of the experiment: E-VIPR assay detecting and measuring Nav inhibition (HEK cells expressing truncated human Nav 1.8). Format: cell-based. To be noted: in the Absence of Human Serum in the E-VIPR Assay; read-out: IC50. An excerpt:
Sodium ion channels are voltage-dependent proteins that can be activated by inducing membrane voltage changes by applying electric fields. The electrical stimulation instrument and methods of use, referred to as E-VIPR, are described in International Publication No. WO 2002/008748 A3 and C.-J. Huang et al. Characterization of voltage-gated sodium channel blockers by electrical stimulation and fluorescence detection of membrane potential, 24 Nature Biotech. 439-46 (2006), both of which are incorporated by reference in their entirety. The instrument comprises a microtiter plate handler, an optical system for exciting the coumarin dye while simultaneously recording the coumarin and oxonol emissions, a waveform generator, a current- or voltage-controlled amplifier, and parallel electrode pairs that are inserted into assay plate wells. Under integrated computer control, this instrument passes user-programmed electrical stimulus protocols to cells within the wells of the microtiter plate.
16-20 hours prior to running the assay on E-VIPR, HEK cells expressing a truncated form of human Nav 1.8 with full channel activity were seeded into microtiter 384-well plates, pre-coated with matrigel, at a density of 25,000 cells per well. 2.5-5% KIR2.1 Bacmam virus was added to the final cell suspension before seeding into cell plates. HEK cells were grown in Dulbecco's Modified Eagle's Medium (DMEM) supplemented with 10% FBS (Fetal Bovine Serum, qualified; Sigma #F4135), 1% NEAA (Non-Essential Amino Acids, Gibco #11140), 1% HEPES (Gibco #15630), 1% Pen-Strep (Penicillin-Streptomycin; Gibco #15140) and 5 μg/ml Blasticidin (Gibco #R210-01). Cells were expanded in vented cap cell culture flasks, with 90-95% humidity and 5% CO2.
Human Serum (HS, Millipore #S1P1-01KL, or Sigma SLBR5469V and SLBR5470V as a 50%/50% mixture, for 25% assay final concentration)
Bath1 Buffer: • Sodium Chloride 160 mM (9.35 g/L), Potassium Chloride, 4.5 mM (0.335 g/L), Glucose 10 mM (1.8 g/L), Magnesium Chloride (Anhydrous) 1 mM (0.095 g/L), Calcium Chloride 2 mM (0.222 g/L), HEPES 10 mM (2.38 g/L) in water.
Na/TMA Cl Bath1 Buffer: • Sodium Chloride 96 mM (5.61 g/L), Potassium Chloride 4.5 mM (0.335 g/L), Tetramethylammonium (TMA)-Cl 64 mM (7.01 g/L), Glucose 10 mM (1.8 g/L), Magnesium Chloride (Anhydrous) 1 mM (0.095 g/L), Calcium Chloride 2 mM (0.222 g/L) HEPES 10 mM (2.38 g/L) in water.
Hexyl Dye Solution (2× concentration): • Bath1 Buffer containing 0.5% β-cyclodextrin (made fresh prior to each use, Sigma #C4767), 8 μM CC2-DMPE and 2 μM DiSBAC6(3). The solution was made by adding 10% Pluronic F127 stock equal to combined volumes of CC2-DMPE and DiSBAC6(3). The order of preparation was first mix Pluronic and CC2-DMPE, then add DiSBAC6(3), then while vortexing add Bath1/β-Cyclodextrin.
Compound Loading Buffer (2×concentration): Na/TMA Cl Bath1 Buffer containing HS (omitted in experiments run in the absence of human serum (HS)) 50%, VABSC-1 1 mM, BSA 0.2 mg/ml (in Bath-1), KCl 9 mM, DMSO 0.75%.
Assay Protocol (7 Key Steps): • 1) To reach the final concentration in each well, 400 nL of each compound was pre-spotted (in neat DMSO) into polypropylene compound plates at 250×desired final concentration from an intermediate stock concentration of 0.075 mM, in an 11 point dose response, 3-fold dilution, resulting in a top dose of 300 nM final concentration in the cell plate. Vehicle control (neat DMSO), and positive control (an established Nav1.8 inhibitor, 25 μM final in assay in DMSO) were added manually to the outermost columns of each plate respectively. The compound plate was backfilled with 45 μL per well of Compound Loading Buffer resulting in a 250 fold dilution of compound following a 1:1 transfer of compound into the cell plate (see Step 6). Final DMSO concentration for all wells in the assay was 0.625% (0.75% DMSO was supplemented to the Compound Loading Buffer for a final DMSO concentration of 0.625%). […]
Take `COc1c([C@H]2[C@H](C(=O)Nc3cc(C(N)=O)ncn3)O[C@@](C)(C(F)(F)F)[C@H]2C)ccc(F)c1F` [Compound 121, 6-[[(2R,3S,4S,5R)-3-(3,4-difluoro-2-methoxy-phenyl)-4,5-dimethyl-5-(trifluoromethyl)tetrahydrofuran-2-carbonyl]amino]pyrimidine-4-carboxamide]: the IC50 was less than 10 nM.

Still in this experiment, the particulars now being: in the Presence of Human Serum in the E-VIPR Assay.
Take `COc1c([C@H]2[C@H](C(=O)Nc3ccnc(C(N)=O)c3)O[C@@](C)(C(F)(F)F)[C@H]2C)ccc(F)c1F` [Compound 7, (2R,3S,4S,5R)-4-[[3-(3,4-difluoro-2-methoxy-phenyl)-4,5-dimethyl-5-(trifluoromethyl)tetrahydrofuran-2-carbonyl]amino]pyridine-2-carboxamide]: the IC50 was less than 10 nM.
Turning to `COc1c([C@@H]2[C@@H](C(=O)Nc3ccnc(C(N)=O)c3)O[C@@](C)(C(F)(F)F)[C@H]2C)ccc(F)c1F` (racemic) [Compound 34, rac-(2S,3R,4S,5R)-4-[[3-(3,4-difluoro-2-methoxy-phenyl)-4,5-dimethyl-5-(trifluoromethyl)tetrahydrofuran-2-carbonyl]amino]pyridine-2-carboxamide], the half-inhibitory concentration (IC50) was more than 1000 nM.

Staying with this experiment, now noted: in the Presence of Human Serum in the E-VIPR Assay; read-out: IC50.
`Cc1cnc(C(N)=O)cc1NC(=O)[C@@H]1O[C@@](C)(C(F)(F)F)[C@@H](C)[C@H]1c1ccc(F)c(F)c1OC(F)F` (stereo in doubt) [Compound 150, rel-(2R,3S,4S,5R)-4-[[3-[2-(difluoromethoxy)-3,4-difluoro-phenyl]-4,5-dimethyl-5-(trifluoromethyl)tetrahydrofuran-2-carbonyl]amino]-5-methyl-pyridine-2-carboxamide]: the IC50 was more than 1000 nM.
On to `CC(C)Oc1c([C@@H]2[C@@H](C(=O)Nc3ccnc(C(N)=O)c3)O[C@](C)(C(F)(F)F)[C@@H]2C)ccc(F)c1F` (single isomer, unassigned) [Compound 88], for which the IC50 was more than 1000 nM.
Same read-out and setting: in the case of `CNC(=O)c1cc(NC(=O)[C@@H]2O[C@](C)(C(F)(F)F)[C@@H](C)[C@H]2c2ccc(F)c(F)c2OC(F)F)ccn1` (stereo in doubt) [Compound 12, rel-(2R,3S,4S,5S)-4-[[3-[2-(difluoromethoxy)-3,4-difluoro-phenyl]-4,5-dimethyl-5-(trifluoromethyl)tetrahydrofuran-2-carbonyl]amino]-N-methyl-pyridine-2-carboxamide] it was more than 1000 nM; in that of `COc1cc(F)ccc1[C@H]1[C@H](C(=O)Nc2ccnc(C(N)=O)c2)O[C@](C)(C(F)(F)F)[C@H]1C` (single isomer, unassigned) [Compound 40], more than 1000 nM; in that of `COc1cc(F)ccc1[C@H]1C[C@@](C)(C(F)(F)F)O[C@@H]1C(=O)Nc1ccnc(C(N)=O)c1` (stereo in doubt) [Compound 67, rel-(2S,3R,5S)-4-[[3-(4-fluoro-2-methoxy-phenyl)-5-methyl-5-(trifluoromethyl)tetrahydrofuran-2-carbonyl]amino]pyridine-2-carboxamide], more than 1000 nM.
Consider `C[C@H]1[C@@H](c2ccc(F)c(F)c2OCC2CC(F)(F)C2)[C@H](C(=O)Nc2ccnc(C(N)=O)c2)O[C@@]1(C)C(F)(F)F` [Compound 146, 4-[[(2R,3S,4S,5R)-3-[2-[(3,3-difluorocyclobutyl)methoxy]-3,4-difluoro-phenyl]-4,5-dimethyl-5-(trifluoromethyl)tetrahydrofuran-2-carbonyl]amino]pyridine-2-carboxamide], for which the 50% inhibitory concentration (IC50) lay within 10 to 100 nM.
Consider `COc1c([C@H]2[C@H](C(=O)Nc3cc[n+]([O-])c(C(N)=O)c3)O[C@@](C)(C(F)(F)F)[C@H]2C)ccc(F)c1F` [Compound 19, (2R,3S,4S,5R)-4-[[3-(3,4-difluoro-2-methoxy-phenyl)-4,5-dimethyl-5-(trifluoromethyl)tetrahydrofuran-2-carbonyl]amino]-1-oxido-pyridin-1-ium-2-carboxamide], for which the IC50 was less than 10 nM.
For the compound `CNC(=O)c1cc(NC(=O)[C@H]2O[C@@](C)(C(F)(F)F)[C@H](C)[C@@H]2c2ccc(F)c(F)c2OC(F)F)ccn1` (stereo in doubt) [Compound 13, rel-(2S,3R,4R,5R)-4-[[3-[2-(difluoromethoxy)-3,4-difluoro-phenyl]-4,5-dimethyl-5-(trifluoromethyl)tetrahydrofuran-2-carbonyl]amino]-N-methyl-pyridine-2-carboxamide], the IC50 was in the range of 10 to 100 nM.
Turning to `C[C@H]1[C@@H](c2ccc(F)c(F)c2OC(F)F)[C@H](C(=O)Nc2ccnc(C(N)=O)c2)O[C@@]1(C)C(F)(F)F` [Compound 11, (2R,3S,4S,5R)-4-[[3-[2-(difluoromethoxy)-3,4-difluoro-phenyl]-4,5-dimethyl-5-(trifluoromethyl)tetrahydrofuran-2-carbonyl]amino]pyridine-2-carboxamide], the half-maximal inhibitory concentration (IC50) is less than 10 nM.
As for `COc1cc(F)ccc1[C@@H]1[C@@H](C)[C@](C)(C(F)(F)F)O[C@H]1C(=O)Nc1ccnc(C(N)=O)c1` (single isomer, unassigned) [Compound 39], the IC50 lay within 100 to 1000 nM.
Still for that read-out and setting: in the case of `CC[C@H]1[C@@H](c2ccc(F)c(F)c2OC)[C@H](C(=O)Nc2ccnc(C(N)=O)c2)O[C@@]1(C)C(F)(F)F` (racemic) [Compound 116, rac-(2R,3S,4S,5R)-4-[[3-(3,4-difluoro-2-methoxy-phenyl)-4-ethyl-5-methyl-5-(trifluoromethyl)tetrahydrofuran-2-carbonyl]amino]pyridine-2-carboxamide] it was less than 10 nM.
Take `CC[C@@]1(C(F)(F)F)C[C@H](c2ccc(F)c(F)c2OC)[C@@H](C(=O)Nc2ccnc(C(N)=O)c2)O1` (stereo in doubt) [Compound 63, rel-(2S,3R,5S)-4-[[3-(3,4-difluoro-2-methoxy-phenyl)-5-ethyl-5-(trifluoromethyl)tetrahydrofuran-2-carbonyl]amino]pyridine-2-carboxamide]: the IC50 was more than 1000 nM.
Consider `COc1c([C@H]2C[C@@](C)(C(F)(F)F)O[C@@H]2C(=O)Nc2ccnc(C(N)=O)c2)ccc(F)c1F` (stereo in doubt) [Compound 4, rel-(2S,3R,5S)-4-[[3-(3,4-difluoro-2-methoxy-phenyl)-5-methyl-5-(trifluoromethyl)tetrahydrofuran-2-carbonyl]amino]pyridine-2-carboxamide], for which the concentration for half-maximal inhibition (IC50) is more than 1000 nM.
On the same count and under the same terms, under `C[C@@H]1[C@H](c2ccc(F)c(F)c2)[C@@H](C(=O)Nc2ccnc(C(N)=O)c2)O[C@]1(C)C(F)(F)F` (single isomer, unassigned) [Compound 90] stands more than 1000 nM; under `COc1cc(F)ccc1[C@H]1C[C@@](C)(C(F)(F)F)O[C@H]1C(=O)Nc1ccnc(C(N)=O)c1` (single isomer, unassigned) [Compound 69], more than 1000 nM.
In the case of `COc1cccc(F)c1[C@@H]1C[C@](C)(C(F)(F)F)O[C@H]1C(=O)Nc1ccnc(C(N)=O)c1` (racemic) [Compound 79, rac-(2R,3S,5R)-4-[[3-(2-fluoro-6-methoxy-phenyl)-5-methyl-5-(trifluoromethyl)tetrahydrofuran-2-carbonyl]amino]pyridine-2-carboxamide], the IC50 was more than 1000 nM.
